As a reminder, the Papp is a coefficient for how fast a substance crosses the barrier. Low readings indicate poor permeation, high ones ready permeation. What is called IC50 is the midpoint of a concentration-inhibition curve.

Test system in one data set: not listed separately
The experiment in a line: in vitro. The following applies: human, Caco-2.
Turning to `CO[C@@H](C(=O)N[C@H]1COc2ccccc2N(C)C1=O)[C@H](O)[C@@H](O)[C@H](O)/C=C/C(C)(C)C` [Example 2, N-((S)-9-methyl-8-oxo-6,7,8,9-tetrahydro-5-oxa-9-azabenzocyclohepten-7-yl)-(E)-(2R,3R,4S,5R)-3,4,5-trihydroxy-2-methoxy-8,8-dimethylnon-6-enamide], the Papp stood at 5.2 ×10⁻⁶ cm/s.

In a further data set the test system is HCT116 cells. The experiment in a line: Antiproliferative activity: inhibition of cellular proliferation of HCT116 cells (14C-thymidine incorporation). To be noted: Homo sapiens, HCT-116, 96 hours. Type of data set: cell-based. As to the method:
The antiproliferative activity of the products of the examples of Table 1 was determined by measuring the inhibition of the cellular proliferation of HCT116 cells.
The cells are inoculated into a cell culture medium at a concentration of 10 000 cells per well, in 0.17 mL of medium, and 20 μL of product to be tested, at various concentrations, and 10 μL of thymidine [methyl-14C] (100 μCi/ml—specific activity 47.90 mCi/mmol; NEN Technologies reference NEC568 batch 3550-001) are added, and then the cells are incubated at 37° C. and 5% CO2.
Medium used for the culture of HCT116 cells:DMEM medium 2 mM L-glutamine, 200 IU/ml penicillin, 200 μg/ml streptomycin and 10% (V/V) foetal calf serum (Life Technologies).
After 96 hours, the incorporation of ^14C-thymidine is counted in a Microbeta Wallac Trilux 1450 liquid scintillation counter. The results R are expressed in cpm (counts per minute) and converted to percentage growth inhibition GI % by first subtracting the mean of the number of cpm of the wells without B cells and by then dividing by the number of cpm of the wells of the untreated cells C comprising 20 μL of medium for dilution of the product containing 1% ethanol. (GI %=(R−B)×100/C %).
The IC50 values are calculated with the aid of the equation 205 of the XLFit software (IDBS company, UK) by non-linear regression analysis using the Marquardt algorithm (Donald W. MARQUARDT, J. Soc. industry. appl, vol 11, No. 2, June, 1963).
For orientation: Uptake of a labelled nucleoside into DNA is a usual measure of proliferation.
The molecule `CO[C@@H](C(=O)N[C@H]1COc2ccccc2N(C)C1=O)[C@H](O)[C@@H](O)[C@H](O)/C=C/C(C)(C)C` [Example 2, N-((S)-9-methyl-8-oxo-6,7,8,9-tetrahydro-5-oxa-9-azabenzocyclohepten-7-yl)-(E)-(2R,3R,4S,5R)-3,4,5-trihydroxy-2-methoxy-8,8-dimethylnon-6-enamide] had an IC50 of 32 nM.

`CO[C@@H](C(=O)N[C@H]1COc2ccccc2NC1=O)[C@H](O)[C@@H](O)[C@H](O)/C=C/C(C)(C)C` [Example 1, N-((S)-8-oxo-6,7,8,9-tetrahydro-5-oxa-9-azabenzocyclohepten-7-yl)-(E)-(2R,3R,4S,5R)-3,4,5-trihydroxy-2-methoxy-8,8-dimethylnon-6-enamide] returned a half-maximal inhibitory concentration (IC50) of 60 nM.

Consider `CO[C@@H](C(=O)N[C@H]1CNc2ccccc2NC1=O)[C@H](O)[C@@H](O)[C@H](O)/C=C/C(C)(C)C` [Example 3, N-((S)-2-oxo-2,3,4,5-tetrahydro-1H-1,5-benzodiazepin-3-yl)-(E)-(2R,3R,4S,5R)-3,4,5-trihydroxy-2-methoxy-8,8-dimethylnon-6-enamide], for which 88 nM corresponded to half-maximal inhibition (IC50).

The molecule `CO[C@@H](C(=O)NC1CN(C)c2ccccc2NC1=O)[C@H](O)[C@@H](O)[C@H](O)/C=C/C(C)(C)C` (stereo partly drawn) [Example 5, N-((S)-1-methyl-4-oxo-2,3,4,5-tetrahydro-1H-1,5-bezodiazepin-3-yl)-(E)-(2R,3R,4S,5R)-3,4,5-trihydroxy-2-methoxy-8,8-dimethylnon-6-enamide] returned a 50% inhibitory concentration (IC50) of 28 nM.

Turning to `CO[C@@H](C(=O)N[C@H]1CNc2ccccc2N(C)C1=O)[C@H](O)[C@@H](O)[C@H](O)/C=C/C(C)(C)C` [Example 4, N-((S)-1-methyl-2-oxo-2,3,4,5-tetrahydro-1H-1,5-benzodiazepin-3-yl)-(E)-(2R,3R,4S,5R)-3,4,5-trihydroxy-2-methoxy-8,8-dimethylnon-6-enamide], the IC50 came to 45 nM.

The record behind these values is patent US7994161B2, “Derivatives of 2-alkoxy-3,4,5-trihydroxy-alkyl amides, preparation and use thereof, and compositions containing the same” (Sanofi-Aventis, priority 2006, dated 2011).
